{"source": "patent US20160050895A1", "about": "“TRANSGENIC NON-HUMAN ORGANISMS WITH NON-FUNCTIONAL TSPO GENES” (AUSTRALIAN NUCLEAR SCIENCE AND TECHNOLOGY ORGANIZATION, priority 2013, published 2016)", "key": {"TSPO [1]": {"molecular_target": "T1, TSPO (Mus musculus, UniProt P50637)", "assay": "Film autoradiography of brain sections after facial nerve axotomy", "type": "binding", "parameters": "from tissue; host or cells: organs of living mice (adrenal gland, kidney, heart, liver, lung, brain)", "settings": "TSPO+/+ animals; after facial nerve axotomy", "source_text": "Procedures for facial nerve axotomy were approved by the animal ethics committee at the University of Sydney. Animals were anaesthetised using Isoflurane anaesthesia. Animals were monitored for a combination of respiration, heart rate, oxygen saturation and temperature during procedures using a variety of monitoring equipment to ensure anaesthetic depth. The surgical process commenced when foot-pad or plantar reflex could no longer be elicited. The fur on the ipsilateral (right) side of the neck was shaved from the ear downwards, and the skin cleaned using 70% ethanol. A small incision (0.5-0.7 cm in length) overlying the musculature covering the stylomastoid foramen was made. The facial nerve was identified, isolated and then transected completely. The skin of incision was closed with heal-glue. […] The animals were euthanized with CO2 3 days after the axotomy and brain tissue, including facial nerve nuclei in the brain stem and cerebellum, was immediately dissected, snap-frozen in liquid nitrogen, and then stored in −80° C. freezer until the cryostat section.\nA small incision (0.5-0.7 cm) in the skin 0.5 cm dorsal and lateral to the ear was made and the facial nerve transected under an operating microscope. The incision was closed with 3M™ Vetbond™ Tissue Adhesive (St. Paul, Minn., USA). […] Mice were monitored carefully and euthanized with CO2 three days after the operation. […]"}, "TSPO [2]": {"molecular_target": "T1, TSPO", "assay": "Radioligand membrane saturation binding with 3H-PK11195", "parameters": "Snap-frozen tissues were sectioned at 20 μm in a cryostat; from tissue; host or cells: mouse organ sections (brain, retina/eye, heart, adrenal, kidney, testis, spleen), C57BL/6 background", "settings": "testicular and kidney tissue; TSPO+/- mice compared to TSPO+/+ mice", "procedure": "Tissue samples were homogenised with T25 digital Ultra-Turrax homogenizer (Ika, Wilmington, N.C., USA) at speed setting 5 or 20000 rpm in approximately 45 mL of ice-cold TRIS buffer (pH 7.4), collected by centrifugation at 48000 g and the supernatant was then discarded. The procedure was then immediately repeated, this acts as an extra wash step to remove any soluble interfering substances to radioligand binding (Byland et al. 1993). Following the second centrifugation and removal ofsupernatant the samples were resuspended in approximately 50 volumes of ice-cold TRIS buffer (pH 7.4). Samples were aliquoted stored in −80° C. until required.\nFor TSPO knock-out mice studies, radioligand binding was performed using 3H-PK11195 racemate across a range of concentrations (FIG. 4). PK11195 is a TSPO specific probe. Total and non-specific binding was determined through 8 concentrations of 3H-PK11195 ranging from 0.56 nM to 20 nM. Non-specific binding was determined by the addition of 5 μM PK11195 to all concentrations of 3H-PK11195. […]\nOrgans were homogenised, washed twice in ice-cold 50 mM Tris-HCl (pH 7.4) by centrifugation at 48000×g, resuspended in 50 volumes of ice-cold 50 mM Tris-HCl, and protein concentration was determined using a BCA protein assay kit (Thermo Fisher Scientific). […] Non-specific binding was determined with 5 μM PK11195. […]"}}}
{"smiles": "CC[C@@H](C)N(C)C(=O)c1cc2ccccc2c(-c2ccccc2Cl)n1", "note": "[[^3H]PK11195]", "values": [{"measurement": "TSPO ligand binding in the injured facial nucleus", "setting": "TSPO [1]", "value": "localised induction of TSPO ligand binding"}, {"measurement": "Specific binding using [3H]PK11195", "setting": "TSPO [2]", "value": "approximately half the signal"}]}
